The record followed here is paper PMC8877291, “Design and Synthesis of Arylpiperazine Serotonergic/Dopaminergic Ligands with Neuroprotective Properties” (Molecules, 2022).

Several values for one entry are separate records, joined by “and”; a condition that tells them apart may be missing. Identical values can stand only once.

The nature of data set [1]: Stability assay in rat liver microsomes. Conditions: NADPH-regenerating system; for remaining at 30 min, 10 μM: pH 7.4, rat liver microsomes, 30 min incubation, read-out: Metabolic Stability (percentage of recovery of the parent compound); for in vitro metabolic stability (in words): rat microsomes, 30 min. Type of data set: in vitro ADME. The protocol:
To evaluate the susceptibility to first-pass oxidative metabolism, the leading cause of metabolic degradation in vivo [17] the target compounds were incubated with rat liver microsomes. The turnover of the parent compound was assessed as the percentage of the parent compound recovered after 30 min of incubation with microsomes in the presence of an NADPH-regenerating system.
Test compounds were pre-incubated at 37 °C with rat liver microsomes (Tebu-Bio, Milan, Italy) (1.0 mg/mL microsomal protein) at 10 μM final concentration in 100 mM potassium phosphate buffer (pH 7.4) for 10 min. Metabolic reactions were initiated by the addition of the NADPH regenerating system (containing 10 mM NADP, 50 mM glucose-6-phosphate, and 10 unit/mL glucose-6-phosphate dehydrogenase, final glucose-6-phosphate dehydrogenase concentration, 1 unit/mL). After 30 min incubation, the reaction mixture was quenched by adding an equal volume of cold acetonitrile containing the internal standard. A test compound incubated with microsomes without NADPH regenerating system was included. Quenched samples were centrifuged at 4500 rpm for 15 min and the supernatants were injected for quantification analysis. Samples (100 μL) were analyzed by using an Agilent 1260 Infinity Binary LC System equipped with a diode array detector (Open Lab software was used to analyze the chromatographic data) and a Phenomenex Gemini C-18 column (250 mm × 4.6 mm, 5 μm particle size). The samples were eluted using CH3CN/20 mM ammonium formate pH 5.5 (7:3, v/v) as eluent (volumetric flow rate =1 mL/min). Concentrations were quantified by measuring the area under the peak.
The percentage of the parent compound remaining after a 30-min incubation was calculated according to the equation:% of parent compound remaining after 30 min = Cparent/Ccontrol × 100(1) where Cparent is ligand concentration after incubation with microsome fraction and NADPH regenerating system and Ccontrol is ligand concentration after incubation with microsome fraction only.
For orientation: Liver microsomes are vesicles of endoplasmic reticulum, rich in cytochrome P450 enzymes.

Data set [2] addresses T1, serotonin 5-HT1A receptor (Homo sapiens, UniProt P08908).
T1 construct: expressed in transfected cells
T1 sequence (P08908 1-422): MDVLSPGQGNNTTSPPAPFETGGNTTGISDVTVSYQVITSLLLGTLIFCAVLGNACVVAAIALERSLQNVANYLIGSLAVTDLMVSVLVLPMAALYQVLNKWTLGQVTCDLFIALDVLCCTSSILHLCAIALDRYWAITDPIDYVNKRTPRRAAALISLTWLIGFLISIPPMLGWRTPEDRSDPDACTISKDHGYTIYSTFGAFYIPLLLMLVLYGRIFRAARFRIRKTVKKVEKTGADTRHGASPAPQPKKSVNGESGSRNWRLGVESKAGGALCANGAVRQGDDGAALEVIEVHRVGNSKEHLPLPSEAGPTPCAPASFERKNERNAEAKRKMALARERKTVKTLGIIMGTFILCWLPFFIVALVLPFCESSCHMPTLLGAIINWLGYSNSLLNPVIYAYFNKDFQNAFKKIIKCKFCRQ
Briefly: 5-HT1A receptor radioligand competition binding ([3H]-8-Hydroxy-DPAT). Conditions: for Ki: human cloned receptor, HEK293 membranes, 1 nM [3H]-8-Hydroxy-DPAT, ± S.E.M., n = 3 in duplicate, read-out: Affinity Ki 5-HT1A; for Ki ratio of the trimethylene and tetramethylene homologs at 5-HT1A: Ki of a (trimethylene) / Ki of b (tetramethylene) homolog, given as a/b. The protocol:
As a first step, competition radioligand binding assays were carried out for all the compounds at the single concentration of 10 µM, on membrane preparations from stable cell lines heterologously expressing the human cloned 5-HT1A, 5-HT2A, or 5-HT7 receptors. […] For the affinity determination at dopamine receptor subtypes, membrane fractions of human dopamine D2s, D3, D1, and D5 receptor-expressing cells were used. They were co-incubated with [^3H]spiperone (for D2s and D3 receptor) or [^3H]SCH23390 (for D1 and D5 receptor) and appropriate concentrations of test compound for 120 min. Bound radioligand was separated from the free ligand using filtration. Radioactivity was measured by liquid scintillation counting.
The affinity of the compounds for serotonin 5-HT1A receptor was evaluated in membrane preparations from HEK293 cells stably expressing the human cloned receptor, following previously described procedures with minor modifications. Competition binding experiments were performed using 1 nM [^3H]-8-Hydroxy-DPAT (1 mCi/mL, PerkinElmer NET929250UC) as radioligand. Nonspecific binding was assessed in the presence of 10 µM serotonin. […] Assays were carried out in duplicate in 96-well assay plates, in assay buffer (50 mM Tris-HCl, 5 mM MgSO4, pH = 7.4). Assay mixtures were incubated at 37 °C for 120 min, followed by filtration through GF/C glass filter plates, and washed with ice-cold wash buffer (50 mM Tris-HCl, pH = 7.4).

Data set [3] addresses dopamine D2s receptor (Homo sapiens, UniProt P14416). In words: Dopamine D2s receptor competition binding ([3H]spiperone).
Procedure: (§1) Competition binding experiments at dopamine D2s and D3 receptor were performed to determine the affinity of the compounds. […] Membrane preparations of transfected CHO-K1 cells stably expressing the human D2s or D3 receptor were performed according to Bautista-Aguilera et al. [26]. The competition binding experiments were conducted as previously reported [26, 27]. Briefly, membrane fractions (D2sR: 25 µg/200 µL; D3R: 20 µg/200 µL) were incubated with [^3H]spiperone (0.2 nM) and test compound for 120 min at room temperature. […] Non-specific binding was determined in the presence of 10 µM haloperidol. Haloperidol was also used as reference compound. Separation of the bound ligand from the free ligand was conducted by filtration through GF/B filters using deionized water.
(§2) Data of at least three independent experiments in triplicate were analyzed using GraphPad Prism 8.1 (San Diego, CA, USA). Binding curves were fitted to a non-linear regression model (one-site competition). Ki values were calculated from IC50 values using the Cheng–Prusoff equation. The statistical calculations were performed on –log(Ki).
Data set [4] has as its target dopamine D3 receptor (Homo sapiens, UniProt P35462). In words: Dopamine D3 receptor competition binding ([3H]spiperone).
Procedure: as §1, §2
Data set [5] concerns SH-SY5Y neuroblastoma cells. Briefly: Neuroprotection against H2O2 in SH-SY5Y cells (MTT assay). Type of data set: cell-based, human. Conditions: 3 h pretreatment, both concentrations (1 μM and 5 μM), then 400 μM H2O2 24 h. The protocol: Treatment of SH-SY5Y cells with 400 μM H2O2 for 24 h led to a reduction of cell viability of 72–76% (Figure 3). The protective effect of each compound was determined by pretreating the cells with the test compound for 3 h at the non-toxic doses of 1 μM and 5 μM, and subsequent treatment with 400 μM H2O2 for an additional 24 h.
SH-SY5Y neuroblastoma cells (cat. CRL-2266, ATCC) were cultured in a 1:1 mixture of Eagle’s Minimum Essential Medium (cat. 15-010-CVR, Corning) and Ham’s F12 medium (cat. 10-080-CVR, Corning). This medium was supplemented with 10% (v/v) Fetal Bovine Serum (cat. 35-079-CV, Corning), 1% (v/v) Glutamine (cat. ECB3000D, Euro Clone) and 1% (v/v) Penicillin—Streptomycin (cat.30-002-CI, Corning). Cells were cultivated at 37 °C with 5% CO2 at saturated humidity.
Determination of neuroprotection against H2O2 was performed using the MTT assay at 24 h. On day 1, 25,000 cells/well were seeded into 96-well plates in a volume of 100 μL. On day 2, the cells were pretreated (3 h) with two drug concentrations (1 μM and 5 μM) before being incubated with 400 μM H2O2 for 24 h. In all the experiments, the various drug-solvents (EtOH, DMSO) were added in each control to evaluate a possible solvent cytotoxicity. After 24 h incubation, MTT (0.5 mg/mL) was added to each well, and after 3–4 h incubation at 37 °C, the supernatant was removed. The formazan crystals were solubilized using 100 μL of DMSO/EtOH (1:1, v/v) and the absorbance values at 570 and 630 nm were determined on the microplate reader Victor 3 from PerkinElmer Life Sciences (Waltham, MA, USA).
Data were analyzed by applying the one-way repeated measures analysis of variance, and Bonferroni’s multiple comparison test followed as a post hoc test. Results are reported as mean SD of at least two to three independent experiments, performed in triplicate. Statistical significance was accepted at p < 0.05.

Chain of dopamine D3 receptor (P35462 whole entry): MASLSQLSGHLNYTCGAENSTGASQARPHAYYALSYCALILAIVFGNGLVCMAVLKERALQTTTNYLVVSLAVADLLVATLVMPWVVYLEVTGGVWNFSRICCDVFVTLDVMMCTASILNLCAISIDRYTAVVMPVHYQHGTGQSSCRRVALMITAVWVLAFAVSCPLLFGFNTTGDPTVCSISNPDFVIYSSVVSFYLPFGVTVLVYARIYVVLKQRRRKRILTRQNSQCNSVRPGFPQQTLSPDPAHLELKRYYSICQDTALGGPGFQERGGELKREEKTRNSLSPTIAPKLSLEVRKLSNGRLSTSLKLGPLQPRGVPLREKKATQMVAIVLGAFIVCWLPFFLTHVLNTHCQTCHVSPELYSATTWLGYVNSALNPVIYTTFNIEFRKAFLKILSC
Chain of dopamine D2s receptor (P14416 1-414 isoform P14416-2): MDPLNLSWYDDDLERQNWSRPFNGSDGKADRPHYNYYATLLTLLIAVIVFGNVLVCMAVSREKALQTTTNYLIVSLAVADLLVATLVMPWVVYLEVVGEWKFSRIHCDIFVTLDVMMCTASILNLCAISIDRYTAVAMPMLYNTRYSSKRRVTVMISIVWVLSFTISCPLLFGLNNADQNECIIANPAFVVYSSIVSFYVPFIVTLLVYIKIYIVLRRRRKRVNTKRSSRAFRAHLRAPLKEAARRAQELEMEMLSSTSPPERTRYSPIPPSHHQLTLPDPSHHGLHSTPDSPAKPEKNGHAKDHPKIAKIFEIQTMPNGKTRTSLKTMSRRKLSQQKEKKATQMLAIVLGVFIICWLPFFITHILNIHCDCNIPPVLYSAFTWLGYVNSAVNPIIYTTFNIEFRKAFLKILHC

Usually Ki stands for a measure of affinity in units of concentration, obtained from inhibition or displacement. Take `Cn1c(=O)cnn(CCCCN2CCN(c3ncccc3-c3ccncc3)CC2)c1=O` [Compound 11b, 2-(4-(4-([3,4’-Bipyridin]-2-yl)piperazin-1-yl)butyl)-4-methyl-1,2,4-triazine-3,5(2H,4H)-dione]: the remaining at 30 min, 10 μM in data set [1] was determined as 3%. Further, the Ki is < 17.6 nM and 5.19 nM in data set [2]; more than 10000 nM in data set [3]; more than 10000 nM in data set [4].

Regarding `Cc1cc(=O)oc2cc(OCCCN3CCN(c4ncccc4-c4ccncc4)CC3)ccc12` [Compound 12a, 7-(3-(4-([3,4’-Bipyridin]-2-yl)piperazin-1-yl)propoxy)-4-methyl-2H-chromen-2-one], in data set [1], the remaining at 30 min, 10 μM was 19% and the “in vitro metabolic stability (in words)” value is on record as “borderline stability value”. Besides, in data set [2], the “Ki ratio of the trimethylene and tetramethylene homologs at 5-HT1A” value is on record as 3.7; the Ki came to 41.5 ± 3 nM. In data set [3], this molecule gave a Ki of 300 nM. The molecule also returned a Ki in data set [4] of 1080 nM.

Regarding `Cn1c(=O)cnn(CCCCN2CCN(c3ccc(F)cc3-c3ccc(C#N)cc3)CC2)c1=O` [Compound 10b, 5’-Fluoro-2’-(4-(4-(4-methyl-3,5-dioxo-4,5-dihydro-1,2,4-triazin-2(3H)-yl)butyl)piperazin-1-yl)-[1,1’-biphenyl]-4-carbonitrile], the remaining at 30 min, 10 μM in data set [1] is 26%. Besides, the “in vitro metabolic stability (in words)” value in data set [1] was “borderline stability value”. Besides, the Ki was 43.4 ± 6.2 nM in data set [2], more than 10000 nM in data set [3] and more than 10000 nM in data set [4].

On to `Cc1cc(=O)oc2cc(OCCCCN3CCN(c4ncccc4-c4ccncc4)CC3)ccc12` [Compound 12b, 7-(4-(4-([3,4’-Bipyridin]-2-yl)piperazin-1-yl)butoxy)-4-methyl-2H-chromen-2-one], for which the remaining at 30 min, 10 μM in data set [1] stood at 14%. The Ki in data set [2] is < 17.6 nM and 11.3 nM; in data set [3], 17 nM; in data set [4], 424 nM.

In the case of `Cn1c(=O)cnn(CCCN2CCN(c3ccc(F)cc3-c3ccc(C#N)cc3)CC2)c1=O` [Compound 10a, 5’-Fluoro-2’-(4-(3-(4-methyl-3,5-dioxo-4,5-dihydro-1,2,4-triazin-2(3H)-yl)propyl)piperazin-1-yl)-[1,1’-biphenyl]-4-carbonitrile], in data set [1], the remaining at 30 min, 10 μM worked out at 5%. Also, the Ki in data set [2] is 1090 ± 154 nM; in data set [3], more than 10000 nM; in data set [4], more than 10000 nM.

Consider `CC1Oc2ccc(OCCCCN3CCN(c4ncccc4-c4ccncc4)CC3)cc2NC1=O` (centres unmarked) [Compound 8b, 6-(4-(4-([3,4’-Bipyridin]-2-yl)piperazin-1-yl)butoxy)-2-methyl-2H-benzo[b][1,4]oxazin-3(4H)-one], for which, in data set [5], the “recovery of cell viability vs 400 μM H2O2 alone (in words)” value is listed as “statistically significant recovery of cell viability”. Further, the remaining at 30 min, 10 μM in data set [1] is 14%. Besides, the Ki in data set [2] was < 17.6 nM and 17.6 nM; in data set [3], 9.08 nM; in data set [4], 691 nM.

In the case of `COc1ccc(-c2cc(F)ccc2N2CCN(CCCCn3ncc(=O)n(C)c3=O)CC2)cc1` [Compound 9b, 2-(4-(4-(5-Fluoro-4’-methoxy-[1,1’-biphenyl]-2-yl)piperazin-1-yl)butyl)-4-methyl-1,2,4-triazine-3,5(2H,4H)-dione], the “recovery of cell viability vs 400 μM H2O2 alone (in words)” value in data set [5] is “statistically significant recovery of cell viability”. Moreover, the remaining at 30 min, 10 μM in data set [1] turned out to be 45%. Also, the inhibitory constant (Ki) is 23.9 ± 4.9 nM in data set [2], more than 10000 nM in data set [3] and more than 10000 nM in data set [4].

On to `Cn1c(=O)cnn(CCCN2CCN(c3ncccc3-c3ccncc3)CC2)c1=O` [Compound 11a, 2-(3-(4-([3,4’-Bipyridin]-2-yl)piperazin-1-yl)propyl)-4-methyl-1,2,4-triazine-3,5(2H,4H)-dione], for which the remaining at 30 min, 10 μM in data set [1] was determined as 4%. Moreover, the “Ki ratio of the trimethylene and tetramethylene homologs at 5-HT1A” value in data set [2] is 52. Besides, the Ki was 269 ± 18 nM in data set [2], more than 10000 nM in data set [3] and more than 10000 nM in data set [4].

As to `CC1Oc2ccc(OCCCN3CCN(c4ncccc4-c4ccncc4)CC3)cc2NC1=O` (centres unmarked) [Compound 8a, 6-(3-(4-([3,4’-Bipyridin]-2-yl)piperazin-1-yl)propoxy)-2-methyl-2H-benzo[b][1,4]oxazin-3(4H)-one], the “recovery of cell viability vs 400 μM H2O2 alone (in words)” value in data set [5] was “statistically significant recovery of cell viability”. Moreover, the remaining at 30 min, 10 μM in data set [1] was found to be 4%. The “Ki ratio of the trimethylene and tetramethylene homologs at 5-HT1A” value in data set [2] is reported as 0.7. Also, the Ki is < 17.6 nM and 13.1 nM in data set [2]; 388 nM in data set [3]; 1220 nM in data set [4].
